Measurements taken from PMC12032302, “A20 attenuates oxidized self-DNA-mediated inflammation in acute kidney injury” (Signal Transduction and Targeted Therapy, 2025).
Residues, ends and D or L forms follow the SMILES beside them.

Experiments:
[1] = tested on: AKI mice; assay: tubular injury / renal injury of AKI mice (HE histology); assay type: in vivo, mouse; details: Cis-treated mice; A20-derived peptide 15 mg/kg i.p., pretreated; n = 9
Method: LPS (Sigma, Cat#L2630) was dissolved in PBS to 2.5 mg/mL for one-time intraperitoneal 25 mg/kg injection; deoxyribonuclease I (DNase I, Sigma, Cat#SLBV1446) was dissolved in PBS to 1 mg/mL and injected intraperitoneally at a dose of 10 mg/kg at 4 h before cisplatin or AA I injection and every 24 h after injection. Disulfiram (MedChemExpress, CAS:97-77-8) was diluted in corn oil to 12.5 mg/mL and injected 50 mg/kg intraperitoneally every 24 h after cisplatin or AA I administration. Cu(II) (Sigma, Cat#344419) was dissolved in PBS to 30 µg/mL and administered intraperitoneally 6 h before disulfiram at a dose of 0.15 mg/kg; TNF-α (Peprotech, Cat#315-01 A) was dissolved in PBS to 10 µg/mL and injected at 100 µg/kg once through the caudal vein 24 h before cisplatin injection. […] MCC950 (MedChem Express, CAS:256373-96-3) was dissolved in PBS to 5 mg/mL and injected intraperitoneally at a dose of 50 mg/kg 12 h before cisplatin or AA I injection and every 12 h after injection; berberine (APExBIO, Cat#N1368) was dissolved in PBS to 5 mg/mL and 5 mg/kg injected intraperitoneally at 36, 24 and 12 h before cisplatin; […] To supervise the effects of various treatments on survival time and rate, the mice were observed, and survival curves were generated. To investigate the specific mechanisms, whole blood was retrieved from the orbit, serum was separated through centrifugation on the 4th day, and the mice were then sacrificed by cervical dislocation. Mice were randomly assigned in experiments, while there was no blinding during the animal experiments. Renal function was evaluated based on serum creatinine level and histological features. Serum creatinine was determined in the Clinical Pharmacology Lab, Clinical Trial Center, WCH, SCU. The kidneys were extracted from euthanized mice, immediately fixed with 4% paraformaldehyde, and embedded in paraffin. Furthermore, the samples were cut into 5 µm thick sections. These tissue samples were subjected to hematoxylin-eosin (HE) and […] according to standard protocols with HE reagent (Biosharp, Cat#BL702B, BL703B) and Masson reagent (Servicebio, Cat#G1006-100ML). The pathological changes were detected through optical microscopy, and the tubulointerstitial injury score was determined as previously reported.

[2] = target: T1, HA-Tri-MUT-NEK7 (Mus musculus, UniProt Q9ES74, K130A/K140A/L132R); assay: BLI analysis of NEK7 and P-II, HA-Tri-MUT-NEK7; assay type: binding; details: K130, L132 and K140 mutated, Fig. 7d
T1 construct: 3×HA; made in house; host or cells: HEK293T
Source text: For BLI analysis, 3×HA-WT-NEK7 or 3×HA-Tri-MUT-NEK7 plasmids were transfected into HEK293T cells. Post-transfection, proteins were purified with HA antibody via coimmunoprecipitation and then eluted with 0.1 M glycine, Ph2.0. Then, samples were neutralized with 3 M NaOH and subjected to BLI analysis.
Mouse HA-NEK7, FlAG-A20, and NLRP3 cDNA were amplified by employing standard PCR techniques from a mouse cDNA library. Subsequently, diverse cDNAs were inserted into mammalian expression vectors pcDNA3.1(+), pRK5, or pCMV6 with 3×Flag or 3×HA tags. For transient transfections, Lipofectamine 3000 was utilized according to the manufacturer’s instructions.
Bio-Layer Interferometry (BLI) analysis
The peptide (Bootech BioScience &Technology) was immobilized separately on Octet® AR2G Biosensors (Sartorius, Lot#2308017311) at a concentration of 400 μg/ml for 500 s. Association and dissociation curves were obtained through the addition of a dilution series of recombinant human NEK7 protein (SinoBiological, CAT#11534-H20B) (39.0625 to 1250 nM) for 120 s followed by dissociation for 120 s. Interference patterns for association or dissociation were measured in real-time to generate a response profile on the Octet® System Octet 96 Red instrument (Sartorius). A 1:1 binding model was used to evaluate the Kinetic parameter.

[3] = tested on: AKI mice; assay: overall therapeutic effect in AKI mice; assay type: in vivo, mouse; details: A20-derived peptide (P-II), abstract
Method: Aristolochic acid I sodium salt was dissolved in PBS to 1 mg/mL and injected intraperitoneally at a dose of 10 mg/kg (body weight) every 24 h for 3 days; cisplatin was dissolved in PBS to 1.5 mg/mL for one-time intraperitoneal 25 mg/kg injection; LPS (Sigma, Cat#L2630) was dissolved in PBS to 2.5 mg/mL for one-time intraperitoneal 25 mg/kg injection; deoxyribonuclease I (DNase I, Sigma, Cat#SLBV1446) was dissolved in PBS to 1 mg/mL and injected intraperitoneally at a dose of 10 mg/kg at 4 h before cisplatin or AA I injection and every 24 h after injection. Disulfiram (MedChemExpress, CAS:97-77-8) was diluted in corn oil to 12.5 mg/mL and injected 50 mg/kg intraperitoneally every 24 h after cisplatin or AA I administration. Cu(II) (Sigma, Cat#344419) was dissolved in PBS to 30 µg/mL and administered intraperitoneally 6 h before disulfiram at a dose of 0.15 mg/kg; TNF-α (Peprotech, Cat#315-01 A) was dissolved in PBS to 10 µg/mL and injected at 100 µg/kg once through the caudal vein 24 h before cisplatin injection. Metformin (Sigma, Cat#D150959) was dissolved in PBS to 5 mg/mL and injected intraperitoneally at a dose of 50 mg/kg 24 h before cisplatin or AA I injection and every 24 h after injection. MCC950 (MedChem Express, CAS:256373-96-3) was dissolved in PBS to 5 mg/mL and injected intraperitoneally at a dose of 50 mg/kg 12 h before cisplatin or AA I injection and every 12 h after injection; berberine (APExBIO, Cat#N1368) was dissolved in PBS to 5 mg/mL and 5 mg/kg injected intraperitoneally at 36, 24 and 12 h before cisplatin; A20-derived-peptide was dissolved in ddH2O to 3 mg/mL and injected intraperitoneally at a dose of 15 mg/kg 1 h before cisplatin. To supervise the effects of various treatments on survival time and rate, the mice were observed, and survival curves were generated. To investigate the specific mechanisms, whole blood was retrieved from the orbit, serum was separated through centrifugation on the 4th day, and the mice were then sacrificed by cervical dislocation. Mice were randomly assigned in experiments, while there was no blinding during the animal experiments.

T1 sequence (Q9ES74 whole entry K130A/L132R/K140A): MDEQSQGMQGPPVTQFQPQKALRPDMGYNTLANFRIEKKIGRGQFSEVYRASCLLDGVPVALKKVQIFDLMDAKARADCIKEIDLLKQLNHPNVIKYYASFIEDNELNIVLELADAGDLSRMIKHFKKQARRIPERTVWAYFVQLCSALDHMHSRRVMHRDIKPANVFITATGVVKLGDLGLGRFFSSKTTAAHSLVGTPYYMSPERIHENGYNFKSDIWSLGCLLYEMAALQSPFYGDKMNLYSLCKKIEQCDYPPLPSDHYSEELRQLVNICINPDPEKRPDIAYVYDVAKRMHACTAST

SMILES: CSCC[C@H](NC(=O)[C@H](Cc1ccc(O)cc1)NC(=O)[C@H](CCC(N)=O)NC(=O)[C@H](CS)NC(=O)[C@H](C)NC(=O)[C@H](C)NC(=O)[C@H](Cc1c[nH]cn1)NC(=O)[C@H](CCSC)NC(=O)[C@H](CC(C)C)NC(=O)[C@H](CS)NC(=O)[C@H](CC(N)=O)NC(=O)CNC(=O)[C@H](CC(=O)O)NC(=O)CNC(=O)[C@H](CC(N)=O)NC(=O)[C@@H](NC(=O)[C@H](CCCCN)NC(=O)[C@H](CC(C)C)NC(=O)[C@H](C)NC(=O)[C@@H](NC(=O)[C@H](CC(C)C)NC(=O)[C@@H](N)CCCCN)C(C)C)[C@@H](C)O)C(=O)N[C@@H](Cc1c[nH]c2ccccc12)C(=O)NCC(=O)N[C@H](C(=O)N[C@@H](CCC(N)=O)C(=O)N[C@@H](CC(=O)O)C(=O)N[C@H](C(=O)N[C@@H](CC(=O)O)C(=O)O)[C@@H](C)O)C(C)C [P-II] (H-KLVALKTNGDGNCLMHAACQYMWGVQDTD-OH; N-terminus and C-terminus assumed)
- renal injury (in words) [1]: alleviated the serum creatinine and renal injury
- affinity of NEK7 for P-II, effect of simultaneous mutation of three residues [2]: abrogated the affinity of NEK7 for P-II
- survival and renal injury of AKI mice [3]: improves the survival and renal injury of AKI mice
